Laboratory results: US20250380697A1, “ISOXAZOLINE DERIVATIVE COMPOUND AND INSECTICIDAL COMPOSITION COMPRISING SAME” (KYUNG NONG CORPORATION, priority 2022, published 2025)

Legend:
Format in all cases: in vivo
[1] = system: Plutella xylostella; test: Pesticidal activity against Plutella xylostella, leaf-dipping method; details: 48 h, read-out: mortality rate, Plutella xylostella
[2] = system: Rhopobota naevana; test: Pesticidal activity against Rhopobota naevana, spray method; details: spray on apple leaves, counted 24, 48, 72 hours, time not given, read-out: mortality rate, Rhopobota naevana
Procedure: Apple leaves were collected along with the stems, and the leaves of 3-4 base were cut into 5 cm×5 cm×5 cm pieces and placed in a tray oasis submerged in water. Then, the pesticide composition where the compound of Synthesis Example 2 was diluted (the solvent=distilled water+acetone 50,000 mg/L+Triton X-100 100 mg/L) was loaded into a 150 mL small sprayer and sprayed to the apple leaves, and 1 hour thereafter, the […] larvae were repeatedly inoculated 5-6 times, one per apple leaf. In particular, the Rhopobota naevana larvae were collected in the R&D Center of Kyung Nong Co., Ltd. (Gyeongju, Korea), and they were used after acclimatization indoors for 24 hours. Then, the Rhopobota naevana larvae were stored under the conditions of 16 hours of light and 8 hours of dark, 25±1° C. and relative humidity of 50-60%, and the number of live Rhopobota naevana larvae was counted 24, 48, and 72 hours after the inoculation. Thereafter, the larvae mortality rate was calculated in the same manner as in Test Example 1 above.

[3] = system: Spodoptera exigua; test: Pesticidal activity against Spodoptera exigua, leaf-dipping method; details: counted 24, 48, 72 hours, time not given, read-out: mortality rate, Spodoptera exigua
Procedure: Cabbage (Daiya) leaves were cut into pieces with a diameter of 5.8 cm, dipped in the pesticide composition where the compound of Synthesis Example 2 was diluted (the solvent=distilled water+acetone 50,000 mg/L+Triton X-100 100 mg/L) for 30 seconds, and sufficiently shade-dried. Then, the shade-dried cabbage leaves were placed in a petri dish (8.8 cm in diameter) covered with filter paper and repeatedly inoculated 3-5 times with the second to the third instar larvae of Spodoptera exigua, 10 larvae per inoculation. In particular, the Spodoptera exigua larvae used were those purchased from the Bio Utilization Institute (Andong, Korea). Then, the Spodoptera exigua larvae were stored under the conditions of 16 hours of light and 8 hours of dark, 25±1° C. and 50-60% relative humidity, and the number of live Spodoptera exigua larvae was counted 24, 48, and 72 hours after the inoculation. Thereafter, the larvae mortality rate was calculated in the same manner as in Test Example 1 above.

[4] = system: Grapholita molesta; test: Pesticidal activity against Grapholita molesta, spray method; details: spray on apples, counted 24, 72, 192 hours, time not given, read-out: mortality rate, Grapholita molesta
Procedure: The pesticide composition where the compound of Synthesis Example 2 was diluted (the solvent=distilled water+acetone 50,000 mg/L+Triton X-100 100 mg/L) was directly sprayed on apples using a CO2 Sprayer® [a nozzle type: Teejet8002VS (a flat fan type), pressure: 800 psi), and then apples were collected 1 hour later, and Grapholita molesta larvae were repeatedly inoculated 5-6 times, 3 per apple. In particular, the Grapholita molesta larvae were collected in the R&D Center of Kyung Nong Co., Ltd. (Gyeongju, Korea), and they were used after acclimatization indoors for 24 hours. Then, the Grapholita molesta larvae were stored under the conditions of 16 hours of light and 8 hours of dark, 25±1° C. and relative humidity of 50-60%, and the number of live Grapholita molesta larvae was counted 24, 72, and 192 hours after the inoculation. Thereafter, the larvae mortality rate was calculated in the same manner as in Test Example 1 above.

[5] = system: Maruca vitrta; test: Pesticidal activity against Maruca vitrta, artificial feed-dipping method; details: counted 24, 48, 72 hours, time not given
Procedure: Cabbage (Daiya) leaves were cut into pieces with a size of 1 cm×1 cm×1 cm, dipped in the pesticide composition where the compound of Synthesis Example 2 was diluted (the solvent=distilled water+acetone 50,000 mg/L+Triton X-100 100 mg/L) for 30 seconds, and then sufficiently shade-dried by placing them on aluminum foil. In this case, the artificial feed used was prepared by a process, in which (1) 13 g of agar powder and 625 mL of secondary distilled water were added into a 1 L beaker and boiled in the microwave for 10 minutes; (2) the agar boiled in the microwave was added into a blender and then 75 g of soybean powder, 20 g of red bean powder, 10 g of malt powder, and 175 mL of secondary distilled water were added thereto and mixed together; and (3) after the resulting mixture was cooled to 50° C., 5 g of a vitamin mixture, 4 g of ascorbic acid, 1 g of sorbic acid, 1 g of β-sitosterol, 10 g of glucose, 10 g of cellulose, 3 g of cholesterol, 1.5 g of methyl-p-hydroxybenzoate, 0.5 g of aureomycin, and 0.4 g of fumidil B were added thereto, mixed together, and then thoroughly cooled. Before placing the artificial feed pieces in a petri dish (¢90 mm×15 mm), parafilm (5.1 cm×5.1 cm) was placed on top of a distilled water-treated filter paper (Ø90 mm) to maintain humidity, and the artificial feed pieces were placed on top of the parafilm.
Then, the second to the third instar larvae of Maruca vitrta were repeatedly inoculated 3-5 times, 10 larvae per inoculation. In this case, the Maruca vitrta larvae used were those purchased from the Bio Utilization Institute (Andong, Korea). Then, the Maruca vitrta larvae were stored under 16 hours of light: 8 hours of dark, 25±1° C., and 50-60% relative humidity, and the number of live Maruca vitrta larvae was counted 24, 48, and 72 hours after inoculation. Thereafter, the larvae mortality rate was calculated in the same manner as in Test Example 1 above.

[6] = system: Helicoverpa armigera; test: Pesticidal activity against Helicoverpa armigera, leaf-dipping method; details: counted 24, 48, 72 hours, time not given, read-out: mortality rate, Helicoverpa armigera
Procedure: Cabbage (Daiya) leaves were cut into pieces with a diameter of 5.8 cm, dipped in the pesticide composition where the compound of Synthesis Example 2 was diluted (the solvent=distilled water+acetone 50,000 mg/L+Triton X-100 100 mg/L) for 30 seconds, and sufficiently shade-dried. Then, the shade-dried cabbage leaves were placed in a petri dish (8.8 cm in diameter) covered with a filter paper and repeatedly inoculated 3-5 times with third instar larvae of Helicoverpa armigera, 10 larvae per inoculation. In this case, Helicoverpa armigera larvae used were those purchased from the Andong National University (Korea). Then, the Helicoverpa armigera larvae were stored under the conditions of 16 hours of light and 8 hours of dark, 25±1° C., and relative humidity of 50-60%, and the number of live Helicoverpa armigera larvae was counted 24, 48, and 72 hours after the inoculation. Thereafter, the larvae mortality rate was calculated in the same manner as in Test Example 1 above.

| SMILES | mortality at 0.1 ppm [1] | mortality at 1 ppm [1] | mortality at 10 ppm [1] | mortality at 0.1 ppm [2] | mortality at 1 ppm [2] | mortality at 1 ppm [3] | mortality at 10 ppm [3] | mortality at 10 ppm [4] | mortality rate, Maruca vitrta ([5]; 0.1 ppm) | mortality rate, Maruca vitrta ([5]; 1 ppm) | mortality at 0.1 ppm [6] |
| --- | --- | --- | --- | --- | --- | --- | --- | --- | --- | --- | --- |
| Cc1cc(C2=NOC(c3cc(Cl)cc(C(F)(F)F)c3)(C(F)(F)F)C2)ccc1C(=O)NC(=O)C1CC1 (racemic) [Synthesis Example 2] | 100% | 100% | 100% | 100% | 100% | 100% | 100% | 85% | 100% | 100% | 100% |
| CON=CNC(=O)c1ccc(C2=NOC(c3cc(Cl)cc(Cl)c3)(C(F)(F)F)C2)cc1C (stereo not drawn) [Comparative Example 1, fluxametamide] | 100% | 100% | 100% | 83% | 100% | 100% | 100% | 85% | 23% | 90% | 78% |
| CNC(=O)c1cc(Cl)cc(C)c1NC(=O)c1cc(Br)nn1-c1ncccc1Cl [Comparative Example 2, chlorantraniliprole] | 21% | 100% | 100% | 100% | 100% | 46% | 71% | 85% | 33% | 83% | 31% |
